Legend:
[1] = test system: carbonic anhydrase; assay: Effect of salt on carbonic anhydrase activity, 50 mM bicine/cresol red assay; format: biochemical; conditions: form of the enzyme that precipitates in the absence of salt
Protocol: The measurement of CO2 absorption enhancement by carbonic anhydrase was performed as described in Example 1 except the assay reagent contains 50 mM bicine at pH 8.65+/−0.05. This embodiment of the assay reagent delays the assay response relative to Example 1. Such a delay expands the “assay window” (from 5.1 to 6.7 seconds, inclusive, in Example 1; to 6.8 to 9.9 seconds, inclusive), and permits analysis of more data points.
When required, such as for stability of certain forms of carbonic anhydrase, additional compounds, such as salts, for example sodium chloride, can be added to the assay reagent. This embodiment of the assay reagent leads to an improved measure of carbonic anhydrase activity for forms of the enzyme which, in the absence of salt, may aggregate, precipitate, or otherwise change their form and alter the result in the assay measurement of CO2 absorption enhancement. The required concentration of salt is expected to be enzyme dependent, and the assay can be used to determine the optimal salt concentration required for optimal enzyme activity determination.
FIG. 3 presents the effect of salt concentration on the determination of carbonic anhydrase activity for a form of the enzyme that precipitates in the absence of salt.

[2] = cited from earlier work
[3] = test system: carbonic anhydrase; assay: Carbonic anhydrase activity before and after zinc addition, bicine/cresol red CO2 hydration assay; format: biochemical, microbial origin; conditions: for fold improvement: activity with 3.5 mM zinc salt versus assay sample without zinc; for Activity (U/mL): zinc deficient enzyme sample incubated with 3.5 mM zinc salt overnight at room temperature
Protocol: A solution containing 25 mM bicine and 123 micromolar (0.05 g/L) cresol-red (pH 8.3) is prepared as the assay reagent. The assay substrate is prepared at room temperature by bubbling CO2 gas into either a 125 mL Erlenmeyer flask containing 100 mL deionized H2O (dH2O) or a 50 ml plastic conical tube containing 30 mL dH2O. Bubbling proceeds for at least 10 minutes to yield a saturated CO2(aq) solution ([CO2]˜30 mM (Kernohan, J. C. 1965. Biochim. Biophys. Acta 96: 304). Carbonic anhydrase test samples are diluted for the assay using the assay reagent as diluent. A set of assay samples, made by 5- or 6-×0.7-fold serial dilutions of the enzyme test sample, are loaded onto a 96-well microtiter plate. Eight replicate wells each containing 100 microliters of each dilution are plated. Corresponding blank wells are loaded on the same plate in alternating columns with the assay sample wells. Blank wells contain either assay reagent alone or a 5- or 6-×0.7-fold serial dilution set of a modified enzyme test sample, where the modification involves removing or inactivating the active enzyme of the test sample.
The plate is inserted into a temperature controlled plate reader equipped with a liquid dispenser unit with the inject head immersed in the aqueous CO2 substrate solution. Initial absorbance of a single well is collected, followed by injection of 100 microliters of aqueous CO2 substrate into a single well and kinetic absorbance reads are collected at fixed time intervals (e.g., every 0.5 seconds) for that well such that the rate of absorbance change can be measured and used to indicate the rate of CO2 hydration. After approximately 5-10 seconds the reaction is no longer monitored and the process is repeated for all subsequent wells. Data automatically collected on the instrument is saved or exported in Microsoft Excel file format and copy/pasted into the Microsoft Excel automated data processing template. The data collected for each well is automatically checked for a linear slope (change in absorbance with change in time) within a selected “assay window” indicating the enzyme in that well was saturated with substrate during the assay window. The assay window is a sub-set of data points collected between selected time points for each well. The assay window for all wells in this example are the same. The slope of the data collected from an individual well assay window is called the “assay slope.” Wells passing the “linearity test” are averaged for a particular dilution to determine the “average assay slope” for that particular dilution. Next, a T-test between blank and assay sample replicates determines the probability that the differences between the two data sets could arise by chance, improving data quality by ensuring that data from an excessively diluted assay sample are not included in calculations of enzyme activity. If at least 3 dilution sets pass the T-test (T-test value <0.05), and at least 4 out of 8 replicate wells for those dilutions pass the “linearity test,” the average assay slope (change in absorbance per unit time) for each accepted dilution is plotted versus the amount of enzyme present in that dilution. […]
Carbonic anhydrase activity improvement was evaluated by measuring enzyme activity before and after zinc addition according to the method of Example 1. […]

[4] = compared to other indicators with similar pKas, such as phenol red; cited from earlier work

Structure (SMILES)	pKa [2]	fold improvement [3]	also measured
[Cl-].[Na+] [NaCl, sodium chloride]			effect of salt addition on activity of a carbonic anhydrase test sample [1]: improve the activity
NC(CO)(CO)CO [Tris]	8.0		
CCC1(CC)C(=O)NC(=O)NC1=O [Veronal]	8.0		
[Cl-].[Cl-].[Zn+2] [ZnCl2]		9 (ZnCl2) fold	Activity (U/mL) [3]: 5800 (ZnCl2) U/mL
O.O.O.O.O.O.O.O=S(=O)([O-])[O-].[Zn+2] [ZnSO4 × 7H2O, ZnSO4×7 H2O]		10 (ZnSO4 × 7H2O) fold	Activity (U/mL) [3]: 6400 (ZnSO4 × 7H2O) U/mL
Cc1cc(C2(c3ccc(O)c(C)c3)OS(=O)(=O)c3ccccc32)ccc1O [cresol red, o-Cresolsulfonephthalein]	8.32		water solubility [4]: relatively high water solubility
[Zn] [zinc]		around 10 fold	

— patent US20160010142A1, “Compositions and Methods For Analysis of C02 Absorption” (NOVOZYMES NORTH AMERICA, INC., priority 2013, published 2016)
